“And” between values parts separate entries of the source, which are not always exact repeats. Equal values may be shown once. Read-outs that look alike come from different tables or passages of the source. Blank lines part the entries; values can stand above or below the compound they belong to. Where a SMILES comes first, the peptide text is derived from it. [ ]: non-standard residue; d: D form. The star is where a group is joined. DOTA = O=C(O)CN1CCN(CC(=O)O)CCN(CC(=O)*)CCN(CC(=O)O)CC1; 1Nal = N[C@@H](Cc1cccc2ccccc12)C(=O)O; NMeNle = CCCC[C@H](NC)C(=O)O
What was measured:
human CCK2R = target: T1, human CCK2R (Homo sapiens, UniProt P32239); assay: Competition assay against [125I][3-iodo-Tyr12,Leu15]gastrin-I on A431-CCK2R cells; format: binding; settings: non-labeled peptide, displacement of [125I][3-iodo-Tyr12,Leu15]gastrin-I, 1 h RT
T1 construct: expressed in transfected cells; host or cells: A431 human epidermoid carcinoma cells, stably transfected (plasmid pCR3.1); provided by Dr. Luigi Aloj
T1 sequence (P32239 1-447): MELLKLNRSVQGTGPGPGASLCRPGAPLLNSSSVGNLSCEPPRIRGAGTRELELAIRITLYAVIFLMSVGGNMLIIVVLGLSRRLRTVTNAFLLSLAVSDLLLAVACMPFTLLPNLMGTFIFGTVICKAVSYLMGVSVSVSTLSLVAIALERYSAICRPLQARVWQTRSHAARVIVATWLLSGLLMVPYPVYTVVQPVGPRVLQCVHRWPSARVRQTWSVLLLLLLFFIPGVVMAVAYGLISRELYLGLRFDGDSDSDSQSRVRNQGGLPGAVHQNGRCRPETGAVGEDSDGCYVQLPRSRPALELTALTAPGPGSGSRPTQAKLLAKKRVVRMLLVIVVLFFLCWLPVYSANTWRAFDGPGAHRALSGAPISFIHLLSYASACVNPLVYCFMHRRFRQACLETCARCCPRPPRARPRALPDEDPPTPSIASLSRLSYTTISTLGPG
Description: [^125I][3-iodo-Tyr^12,Leu^15]gastrin-I at high molar activity was obtained by HPLC purification and stored in aliquots at −25 °C. Binding assays were carried out using 96-well filter plates (MultiScreenHTS-FB, Merck Group, Darmstadt, Germany) pre-treated with 10 mM TRIS/139 mM NaCl pH 7.4 (2 × 250 µL). For the assay, 200,000–400,000 A431-CCK2R cells per well were prepared in 20 mM HEPES buffer pH 7.4 containing 10 mM MgCl2, 14 µM bacitracin and 0.5% BSA. The cells (n = 3) were incubated with increasing concentrations of the peptide conjugates (0.0003–30,000 nM) and [^125I][3-iodo-Tyr^12,Leu^15]gastrin-I (50,000 cpm) for 1 h at RT. Incubation was interrupted by filtration of the medium and rapid rinsing with ice-cold 10 mM TRIS/139 mM NaCl pH 7.4 (2 × 200 µL) and the filters were measured in the gamma-counter. Half maximal inhibitory concentration (IC50) values were calculated following nonlinear regression with Origin software (Microcal Origin 6.1, Northampton, MA, USA).

[1] = Distribution coefficient (logD) in octanol/PBS; format: physicochemical
Description: The mixture was vigorously vortexed at room temperature over a period of 15 min using a small shaker (MS3 Basic, IKA, Staufen, Germany) with speed of 1500 rpm.

[2] = Metabolic stability in vivo and radiometabolites (radio-HPLC of blood, urine, liver, kidney); design: species or system BALB/c mice
Description: Metabolic biodistribution studies were performed in accordance with the ethical standards of the institution and approved by the Austrian Ministry of Science (BMWFW-66.011/0072-V/3b/2019). These studies were carried out in 5- to 7-week-old female BALB/c mice (n = 3) injected with [^177Lu]Lu-1 via a lateral tail vein. To allow monitoring of the metabolites by radio-HPLC, mice were injected with 30 MBq corresponding to 0.8 nmol total peptide. The mice were euthanized by cervical dislocation after different time points of 10 min, 30 min and 1 h p.i. and the urine and a venous blood sample were collected at the time of sacrifice. Liver and kidneys were dissected and homogenized in 20 mM HEPES buffer pH 7.3 at a ratio of 1:1 (v/v) with an Ultra-Turrax T8 homogenizer (IKA-Werke, Staufen, Germany) for 1 min at RT. Before radio-HPLC analysis, the samples (except urine) were treated with ACN at a ratio of 1:1 (v/v) to precipitate proteins, centrifuged at 2000× g for 2 min and diluted with water at a ratio of 1:1 (v/v). For HPLC analysis of the samples, the analytical HPLC system described above with a flow rate of 1 mL/min was used together with the following optimized water/ACN/0.1% TFA gradient to allow a better separation of [^177Lu]Lu-1 and the different radiometabolites: 0–7 min 1–7% ACN, 7–8 min 7–10% ACN, 8–18 min 10–18% ACN, 18–20 min 18–32% ACN, 20–27 min 32% ACN, 27–37 min […], 37–40 min 80% ACN, 40–40.1 min 80–1% ACN, 40.1–45 min 1% ACN. Urine was measured with the low-sensitivity loop of the radiodetector. The remaining samples were analyzed with the high-sensitivity loop due to the lower radioactivity present in blood, liver and kidney homogenate. To quantify the percentage of intact [^177Lu]Lu-1 and [^177Lu]Lu-M1 showing some overlap in the radiochromatogram when using the high-sensitivity loop of the radiodetector, the two radiopeptides were co-injected at different known ratios to enable a more accurate separation and integration of the two peaks (see supporting Figure S4). Mice from the metabolic biodistribution studies were subjected to a further dissection of all remaining tissues (blood, lung, heart, femur, spleen, muscle, intestine, pancreas and stomach). All organs, also including liver and kidneys, were weighed, and their radioactivity was measured in the gamma counter together with a standard and the residual body. To quantify the uptake of radioactivity in liver and kidneys, a part of liver and kidney homogenate was measured in the gamma counter to extrapolate the radioactivity for the whole organ.

[3] = Protein binding in human serum by size exclusion chromatography; format: in vitro ADME; settings: 24 h incubation
Description: For protein binding assessment, the radiolabeled DOTA-peptides were incubated in fresh human serum at 37 °C (500 pmol/mL, n = 2). After 1, 4 and 24 h of incubation, two samples were taken for each time point and analyzed by Sephadex G-50 size-exclusion chromatography (GE Healthcare Illustra, Little Chalfont, UK). The percentage of protein binding was determined by measuring the column and the eluate with the gamma-counter.

[4] = Stability in fresh human serum (radio-HPLC); format: in vitro ADME; settings: 24 h incubation, 37 °C
Description: In vitro stability studies for the characterization of the metabolic stability of the radiolabeled peptide analogs in human serum were carried out with [^177Lu]Lu-1, [^177Lu]Lu-M1, [^177Lu]Lu-M2, [^177Lu]Lu-M3 and [^177Lu]Lu-M4 (n = 2). Additional stability studies in rat liver and kidney homogenates were performed for [^177Lu]Lu-1 (n = 2). Tissue homogenates were prepared from dissected organs by homogenization for 1 min at RT (IKA-Werke, Staufen, Germany) in 20 mM HEPES buffer pH 7.3 (30% v/v). The radioligands were incubated in the different media at a concentration of 500 pmol/mL (corresponding to an activity of 6–11 MBq). After incubation at 37 °C at different time points for up to 24 h, a 100 µl sample was taken in duplicates and analyzed by HPLC. Samples obtained from human serum and rat homogenates were treated with ACN at a ratio of 1:1.5 (v/v) to precipitate proteins, centrifuged (14,000 rpm, 2 min, centrifuge 5424, Eppendorf AG, Germany) and diluted with water at a ratio of 1:1 (v/v). A 100 µl aliquot of this solution was injected into the radio HPLC system. The degradation of the radioligand was evaluated based on the radiochemical purity after radiolabeling and the percentage of intact radiopeptide observed during incubation in the different media.

[5] = octanol/PBS pH 7.4, read-out: logD
[6] = blood, 30 min p.i., mice injected i.v. with [177Lu]Lu-1
[7] = blood, 60 min p.i., mice injected i.v. with [177Lu]Lu-1
[8] = blood, different time points up to 1 h p.i.

IC50 (human CCK2R): > 1000 nM
Compound: CCCC[C@@H](C(=O)N[C@@H](CC(=O)O)C(=O)N[C@@H](Cc1cccc2ccccc12)C(=O)O)N(C)C(=O)[C@H](Cc1c[nH]c2ccccc12)NC(=O)CNC(=O)[C@H](Cc1ccc(O)cc1)NC(=O)[C@@H]1CCCN1C(=O)[C@@H](CCC(=O)O)NC(=O)CN1CCN(CC(=O)O)CCN(CC(=O)O)CCN(CC(=O)O)CC1 [M1, DOTA-DGlu-Pro-Tyr-Gly-Trp-(N-Me)Nle-Asp-1Nal-COOH] ({DOTA}-[dE]PYGW[NMeNle]D[1Nal]-OH)

IC50 (human CCK2R): > 1000 nM
Compound: CCCC[C@@H](C(=O)N[C@@H](CC(=O)O)C(=O)O)N(C)C(=O)[C@H](Cc1c[nH]c2ccccc12)NC(=O)CNC(=O)[C@H](Cc1ccc(O)cc1)NC(=O)[C@@H]1CCCN1C(=O)[C@@H](CCC(=O)O)NC(=O)CN1CCN(CC(=O)O)CCN(CC(=O)O)CCN(CC(=O)O)CC1 [M2, DOTA-DGlu-Pro-Tyr-Gly-Trp-(N-Me)Nle-Asp] ({DOTA}-[dE]PYGW[NMeNle]D-OH; C-terminus assumed)

IC50 (human CCK2R): > 1000 nM
Compound: CCCC[C@@H](C(=O)O)N(C)C(=O)[C@H](Cc1c[nH]c2ccccc12)NC(=O)CNC(=O)[C@H](Cc1ccc(O)cc1)NC(=O)[C@@H]1CCCN1C(=O)[C@@H](CCC(=O)O)NC(=O)CN1CCN(CC(=O)O)CCN(CC(=O)O)CCN(CC(=O)O)CC1 [M3, DOTA-DGlu-Pro-Tyr-Gly-Trp-(N-Me)Nle] ({DOTA}-[dE]PYGW[NMeNle]-OH; C-terminus assumed)

IC50 (human CCK2R): > 1000 nM
Compound: O=C(O)CC[C@@H](NC(=O)CN1CCN(CC(=O)O)CCN(CC(=O)O)CCN(CC(=O)O)CC1)C(=O)N1CCC[C@H]1C(=O)N[C@@H](Cc1ccc(O)cc1)C(=O)NCC(=O)N[C@@H](Cc1c[nH]c2ccccc12)C(=O)O [M4, DOTA-DGlu-Pro-Tyr-Gly-Trp] ({DOTA}-[dE]PYGW-OH; C-terminus assumed)

Continued, compound first:

Compound: CCCC[C@@H](C(=O)N[C@@H](CC(=O)O)C(=O)N[C@@H](Cc1cccc2ccccc12)C(=O)O)N(C)C(=O)[C@H](Cc1c[nH]c2ccccc12)NC(=O)CNC(=O)[C@H](Cc1ccc(O)cc1)NC(=O)[C@@H]1CCCN1C(=O)[C@@H](CCC(=O)O)NC(=O)CN1CCN(CC(=O)O)CCN(CC(=O)O)CCN(CC(=O)O)CC1 [[^177Lu]Lu-M1, metal not drawn] ({DOTA}-[dE]PYGW[NMeNle]D[1Nal]-OH)
logD [1, 5]: -4.07 ± 0.35 | percentage of intact radiopeptide / radiometabolite [2, 6]: 9.9% | percentage of intact radiopeptide / radiometabolite [2, 7]: 5.8% | amount of radiometabolite [2, 8]: < 10% | percentage of intact radiopeptide / radiometabolite ([2]; kidney, 30 min p.i.): 2.5% | percentage of intact radiopeptide / radiometabolite ([2]; liver, 30 min p.i.): 4.8% | percentage of intact radiopeptide / radiometabolite ([2]; liver, 60 min p.i.): 4.6% | percentage of intact radiopeptide / radiometabolite ([2]; urine, 30 min p.i.): 1.4% | fraction unbound [3]: 0.546 | intact radiopeptide [4]: 89.1 ± 1.3% | intact radiopeptide ([4]; listed as radiolabeled M1): 89%

Compound: CCCC[C@@H](C(=O)N[C@@H](CC(=O)O)C(=O)O)N(C)C(=O)[C@H](Cc1c[nH]c2ccccc12)NC(=O)CNC(=O)[C@H](Cc1ccc(O)cc1)NC(=O)[C@@H]1CCCN1C(=O)[C@@H](CCC(=O)O)NC(=O)CN1CCN(CC(=O)O)CCN(CC(=O)O)CCN(CC(=O)O)CC1 [[^177Lu]Lu-M2, metal not drawn] ({DOTA}-[dE]PYGW[NMeNle]D-OH; C-terminus assumed)
logD [1, 5]: -4.18 ± 0.17 | percentage of intact radiopeptide / radiometabolite [2, 6]: 3.8% | percentage of intact radiopeptide / radiometabolite [2, 7]: 7.3% | amount of radiometabolite [2, 8]: < 8% | percentage of intact radiopeptide / radiometabolite ([2]; kidney, 30 min p.i.): 20.7% | percentage of intact radiopeptide / radiometabolite ([2]; kidney, 60 min p.i.): 12% and 12.3% | percentage of intact radiopeptide / radiometabolite ([2]; liver, 30 min p.i.): 7.2% | percentage of intact radiopeptide / radiometabolite ([2]; liver, 60 min p.i.): 6.9% | percentage of intact radiopeptide / radiometabolite ([2]; urine, 30 min p.i.): 40.5% | percentage of intact radiopeptide / radiometabolite ([2]; urine, 60 min p.i.): 40.3% | amount of radiometabolite ([2]; urine, time point not stated): ~ 40% | fraction unbound [3]: 0.519 | intact radiopeptide [4]: 98.1 ± 0.3%

Compound: O=C(O)CC[C@@H](NC(=O)CN1CCN(CC(=O)O)CCN(CC(=O)O)CCN(CC(=O)O)CC1)C(=O)N1CCC[C@H]1C(=O)N[C@@H](Cc1ccc(O)cc1)C(=O)NCC(=O)N[C@@H](Cc1c[nH]c2ccccc12)C(=O)O [[^177Lu]Lu-M4, metal not drawn] ({DOTA}-[dE]PYGW-OH; C-terminus assumed)
logD ([1]; pH 7.4): -4.19 ± 0.3 | amount of radiometabolite ([2]; mouse, in vivo): < 3%

Compound: O=C(O)CC[C@@H](NC(=O)CN1CCN(CC(=O)O)CCN(CC(=O)O)CCN(CC(=O)O)CC1)C(=O)N1CCC[C@H]1C(=O)N[C@@H](Cc1ccc(O)cc1)C(=O)NCC(=O)O [[^177Lu]Lu-M5, metal not drawn] ({DOTA}-[dE]PYG-OH; C-terminus assumed)
amount of radiometabolite ([2]; mouse, in vivo): < 10%

Compound: O=C(O)CC[C@@H](NC(=O)CN1CCN(CC(=O)O)CCN(CC(=O)O)CCN(CC(=O)O)CC1)C(=O)N1CCC[C@H]1C(=O)N[C@@H](Cc1ccc(O)cc1)C(=O)O [[^177Lu]Lu-M6, metal not drawn] ({DOTA}-[dE]-Pro-Tyr-OH; C-terminus assumed)
amount of radiometabolite ([2]; mouse, in vivo): ~ 20%

Compound: CCCC[C@@H](C(=O)N[C@@H](CC(=O)O)C(=O)N[C@@H](Cc1cccc2ccccc12)C(N)=O)N(C)C(=O)[C@H](Cc1c[nH]c2ccccc12)NC(=O)CNC(=O)[C@H](Cc1ccc(O)cc1)NC(=O)[C@@H]1CCCN1C(=O)[C@@H](CCC(=O)O)NC(=O)CN1CCN(CC(=O)O)CCN(CC(=O)O)CCN(CC(=O)O)CC1 [compound 1, DOTA-DGlu-Pro-Tyr-Gly-Trp-(N-Me)Nle-Asp-1Nal-NH2] ({DOTA}-[dE]PYGW[NMeNle]D[1Nal]-NH2)
IC50 (human CCK2R): 0.69 ± 0.09 nM
